Measured values as given in patent publication US20240158447A1, “PEPTIDES FOR USE IN THE TREATMENT OR PREVENTION OF MYOCARDIAL DAMAGE” (THE UNIVERSITY OF WESTERN AUSTRALIA, priority 2020, published 2024).

System: wild type cardiac myocytes
Test: Mitochondrial membrane potential (JC-1) after H2O2 in cardiac myocytes
Format: cell-based, mouse
Conditions: 20 min incubation with 0.5-1 μM peptide; calcium-free; 30 μM H2O2 5 min; FIG. 3(c)
Description: Adult male C57BL/6J mice were anesthetized with pentobarbitone sodium (240 mg/kg) via intraperitoneal injection prior to excision of the heart. Ventricular myocytes were isolated. Mouse hearts were cannulated onto a Langendorff apparatus via the aorta and perfused retrogradely with Krebs-Henseleit Buffer (KHB) containing (in mM): 120 NaCl, 25 NaHCO3, 4.8 KCl, 2.2 MgSO4, 1.2 NaH2PO4 and 11 glucose (pH=7.35 with O2/CO2 at 37° C.) for 4 min at 37° C. Hearts were then perfused with KHB supplemented with 2.4 mg/ml collagenase B for 3 min, then 8 min perfusion in the presence of 40 μM calcium. […]
All in vitro studies were performed in freshly isolated myocytes at 37° C. […] Following a 20 min incubation with 0.5-1 μM AID(S)-TAT, AID-TAT, peptide 6 or peptide 7, fluorescent signal of individual myocytes was quantified using Metamorph 6.3 to measure signal intensity of manually traced cell regions. […]
Mitochondrial membrane potential (Ψm) was monitored in cardiac myocytes by assessing alterations in 5,5′,6,6′-tetrachloro-1,1′,3,3′-tetraethylbenzimidazolylcarbocyanine iodide fluorescence (JC-1: 200 nM, ex 480 nm, em 580/535 nm, Molecular Probes). […] Ratiometric 580/535 nm fluorescent signal was quantified and reported as a percentage from the baseline pre-treatment average. […]

Substance: AIDP7-TAT: QQQEEDLKGYLDWITQAE with TAT sequence
- mitochondrial membrane potential (JC-1): reduced the mitochondrial membrane potential
